How the values were obtained:
Experiment in all cases: relative viability (nuclei count vs DMSO), 5 days (fraction); higher = more cells survive
[1] = compound: CN1C=C(C2=CC=CC=C21)/C=C\3/C4=C(C=CC=N4)NC3=O + CS(=O)(=O)N1CCN(Cc2cc3nc(-c4cccc5[nH]ncc45)nc(N4CCOCC4)c3s2)CC1 [Pictilisib] (partner 1 µM)
Method in brief: (§1)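 A single step with final 0.05% Triton X-100, 1% formaldehyde and 1 ug/ml Hoechst fixed the cells and stained nuclei 5 days after treatment. Lung cancer cell lines in 1536-well plates had been treated by pin tool the day after seeding with one drug alone or a fixed anchor-drug dose plus five library-drug doses (not always all listed) in √10 steps, and nuclei were counted on 4× images. Relative viability is the ratio of nuclei in treated wells to nuclei in vehicle wells, taken as the median of duplicate plates.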

[2] = compound: CN1C=C(C2=CC=CC=C21)/C=C\3/C4=C(C=CC=N4)NC3=O + COc1cc2c(Oc3ccc(NC(=O)C4(C(=O)Nc5ccc(F)cc5)CC4)cc3F)ccnc2cc1OCCCN1CCOCC1 [Foretinib] (partner 0.25 µM)
Method in brief: as §1

[3] = compound: CN1C=C(C2=CC=CC=C21)/C=C\3/C4=C(C=CC=N4)NC3=O + Cc1cc(Nc2cc(N3CCN(C)CC3)nc(Sc3ccc(NC(=O)C4CC4)cc3)n2)n[nH]1 [Tozasertib] (partner 0.1 µM)
Method in brief: as §1

[4] = compound: CN1C=C(C2=CC=CC=C21)/C=C\3/C4=C(C=CC=N4)NC3=O + O=C(c1cc(Cc2n[nH]c(=O)c3ccccc23)ccc1F)N1CCN(C(=O)C2CC2)CC1 [Olaparib] (partner 8 µM)
Method in brief: as §1

BEN
relative viability ([1]; first compound 0.02 µM): 0.541
relative viability ([1]; first compound 0.06325 µM): 0.596
relative viability ([1]; first compound 0.2 µM): 0.504
relative viability ([1]; first compound 0.6325 µM): 0.478
relative viability ([1]; first compound 2 µM): 0.532
relative viability ([2]; first compound 0.02 µM): 0.66
relative viability ([2]; first compound 0.06325 µM): 0.742
relative viability ([2]; first compound 0.6325 µM): 0.483
relative viability ([2]; first compound 2 µM): 0.484
relative viability ([3]; first compound 0.02 µM): 0.475
relative viability ([3]; first compound 0.06325 µM): 0.445
relative viability ([3]; first compound 0.2 µM): 0.443
relative viability ([3]; first compound 0.6325 µM): 0.634
relative viability ([3]; first compound 2 µM): 0.761
relative viability ([4]; first compound 0.02 µM): 1.01
relative viability ([4]; first compound 0.06325 µM): 0.91
relative viability ([4]; first compound 0.2 µM): 0.885
relative viability ([4]; first compound 0.6325 µM): 1.14
relative viability ([4]; first compound 2 µM): 1.24

NCI-H2347
relative viability ([1]; first compound 0.02 µM): 0.527
relative viability ([1]; first compound 0.06325 µM): 0.704
relative viability ([1]; first compound 0.2 µM): 0.572
relative viability ([1]; first compound 0.6325 µM): 0.438
relative viability ([1]; first compound 2 µM): 0.658
relative viability ([2]; first compound 0.02 µM): 1.13
relative viability ([2]; first compound 0.06325 µM): 0.76
relative viability ([2]; first compound 0.2 µM): 0.988
relative viability ([2]; first compound 0.6325 µM): 0.707
relative viability ([2]; first compound 2 µM): 0.748
relative viability ([3]; first compound 0.06325 µM): 0.421
relative viability ([3]; first compound 0.2 µM): 0.556
relative viability ([3]; first compound 0.6325 µM): 0.512
relative viability ([3]; first compound 2 µM): 0.681
relative viability ([4]; first compound 0.02 µM): 0.491
relative viability ([4]; first compound 0.06325 µM): 0.503
relative viability ([4]; first compound 0.2 µM): 0.539
relative viability ([4]; first compound 0.6325 µM): 0.565
relative viability ([4]; first compound 2 µM): 0.616

LCLC-103H
relative viability ([1]; first compound 0.02 µM): 0.721
relative viability ([1]; first compound 0.06325 µM): 0.672
relative viability ([1]; first compound 0.2 µM): 0.553
relative viability ([1]; first compound 0.6325 µM): 0.53
relative viability ([1]; first compound 2 µM): 0.584
relative viability ([2]; first compound 0.02 µM): 0.735
relative viability ([2]; first compound 0.06325 µM): 0.685
relative viability ([2]; first compound 0.2 µM): 0.813
relative viability ([2]; first compound 0.6325 µM): 0.802
relative viability ([2]; first compound 2 µM): 0.858
relative viability ([3]; first compound 0.02 µM): 0.313
relative viability ([3]; first compound 0.06325 µM): 0.506
relative viability ([3]; first compound 0.2 µM): 0.475
relative viability ([3]; first compound 0.6325 µM): 0.511
relative viability ([3]; first compound 2 µM): 0.536
relative viability ([4]; first compound 0.02 µM): 0.764
relative viability ([4]; first compound 0.06325 µM): 0.727
relative viability ([4]; first compound 0.2 µM): 0.801
relative viability ([4]; first compound 0.6325 µM): 0.825
relative viability ([4]; first compound 2 µM): 0.808

NCI-H650
relative viability ([1]; first compound 0.02 µM): 0.826
relative viability ([1]; first compound 0.06325 µM): 0.922
relative viability ([1]; first compound 0.6325 µM): 0.784
relative viability ([1]; first compound 2 µM): 0.911
relative viability ([2]; first compound 0.02 µM): 1.05
relative viability ([2]; first compound 0.06325 µM): 0.938
relative viability ([2]; first compound 0.6325 µM): 1.02
relative viability ([2]; first compound 2 µM): 1
relative viability ([3]; first compound 0.02 µM): 0.643
relative viability ([3]; first compound 0.06325 µM): 0.674
relative viability ([3]; first compound 0.6325 µM): 0.829
relative viability ([3]; first compound 2 µM): 0.757
relative viability ([4]; first compound 0.02 µM): 0.464
relative viability ([4]; first compound 0.06325 µM): 0.418
relative viability ([4]; first compound 0.6325 µM): 0.434
relative viability ([4]; first compound 2 µM): 0.411

NCI-H1975
relative viability ([1]; first compound 0.02 µM): 0.297
relative viability ([1]; first compound 0.06325 µM): 0.255
relative viability ([1]; first compound 0.2 µM): 0.251
relative viability ([1]; first compound 0.6325 µM): 0.246
relative viability ([1]; first compound 2 µM): 0.246
relative viability ([2]; first compound 0.02 µM): 0.87
relative viability ([2]; first compound 0.06325 µM): 0.918
relative viability ([2]; first compound 0.2 µM): 0.83
relative viability ([2]; first compound 0.6325 µM): 0.697
relative viability ([2]; first compound 2 µM): 0.837
relative viability ([3]; first compound 0.02 µM): 0.688
relative viability ([3]; first compound 0.06325 µM): 0.753
relative viability ([3]; first compound 0.2 µM): 0.641
relative viability ([3]; first compound 0.6325 µM): 0.42
relative viability ([3]; first compound 2 µM): 0.245
relative viability ([4]; first compound 0.02 µM): 0.803
relative viability ([4]; first compound 0.06325 µM): 0.737
relative viability ([4]; first compound 0.2 µM): 0.674
relative viability ([4]; first compound 0.6325 µM): 0.61
relative viability ([4]; first compound 2 µM): 0.47

NCI-H2126
relative viability ([1]; first compound 0.02 µM): 0.486
relative viability ([1]; first compound 0.06325 µM): 0.492
relative viability ([1]; first compound 0.2 µM): 0.431
relative viability ([1]; first compound 0.6325 µM): 0.431
relative viability ([1]; first compound 2 µM): 0.415
relative viability ([2]; first compound 0.02 µM): 1.13
relative viability ([2]; first compound 0.06325 µM): 1.12
relative viability ([2]; first compound 0.2 µM): 1.22
relative viability ([2]; first compound 0.6325 µM): 0.867
relative viability ([2]; first compound 2 µM): 1.11
relative viability ([3]; first compound 0.02 µM): 0.85
relative viability ([3]; first compound 0.06325 µM): 0.756
relative viability ([3]; first compound 0.2 µM): 0.807
relative viability ([3]; first compound 0.6325 µM): 0.807
relative viability ([3]; first compound 2 µM): 0.836
relative viability ([4]; first compound 0.02 µM): 0.888
relative viability ([4]; first compound 0.06325 µM): 0.853
relative viability ([4]; first compound 0.2 µM): 0.919
relative viability ([4]; first compound 0.6325 µM): 0.971
relative viability ([4]; first compound 2 µM): 0.883

NCI-H2087
relative viability ([1]; first compound 0.02 µM): 0.942
relative viability ([1]; first compound 0.06325 µM): 0.833
relative viability ([1]; first compound 0.2 µM): 0.769
relative viability ([1]; first compound 0.6325 µM): 0.793
relative viability ([1]; first compound 2 µM): 0.951
relative viability ([2]; first compound 0.02 µM): 1.05
relative viability ([2]; first compound 0.06325 µM): 1.11
relative viability ([2]; first compound 0.2 µM): 1.3
relative viability ([2]; first compound 0.6325 µM): 1.04
relative viability ([2]; first compound 2 µM): 1.04
relative viability ([3]; first compound 0.02 µM): 0.227
relative viability ([3]; first compound 0.06325 µM): 0.245
relative viability ([3]; first compound 0.2 µM): 0.249
relative viability ([3]; first compound 0.6325 µM): 0.189
relative viability ([3]; first compound 2 µM): 0.212
relative viability ([4]; first compound 0.02 µM): 0.513
relative viability ([4]; first compound 0.06325 µM): 0.56
relative viability ([4]; first compound 0.2 µM): 0.62
relative viability ([4]; first compound 0.6325 µM): 0.511
relative viability ([4]; first compound 2 µM): 0.653

From the supplement of paper PMC10307832
